Experiments:
human PDHK2 (hPDHK2) = target: T1, human PDHK2 (hPDHK2) (Homo sapiens, UniProt Q15119); experiment: Inhibitory action of PDHK2 activity in vitro (residual PDH activity after kinase reaction); assay type: biochemical
T1 construct: made in house; host or cells: Escherichia coli BL21(DE3), pET17b
Experimental: The inhibitory action of PDHK activity was assessed indirectly by measuring the residual PDH activity after kinase reaction in the presence of a test compound.
In the case of human PDHK2 (hPDHK2, Genbank Accession No. BC040478.1), modified hPDHK2 cDNA wherein FLAG-Tag sequence was added to the N terminus of hPDHK2 cDNA clone (pReceiver-M01/PDK2-GeneCopoeia) was prepared by PCR and cloned into a vector (pET17b-Novagen). The recombinant construct was transformed into Escherichia coli (DH5α-TOYOBO). The recombinant clones were identified, and plasmid DNA was isolated and subjected to the DNA sequence analysis. One clone which had the expected nucleic acid sequence was selected for expression work.
For expression of hPDHK2 activity, Escherichia coli strain BL21(DE3) cells (Novagen) were transformed with the pET17b vector containing modified hPDHK2 cDNA. The Escherichia coli were grown to an optical density 0.6 ([…]) at 30° C. Protein expression was induced by the addition of 500 μmol/L isopropyl-β-thiogalactopyranoside. The Escherichia coli were cultured at 30° C. for 5 hr and harvested by centrifugation. Resuspension of the Escherichia coli paste was disrupted by a microfluidizer. FLAG-Tagged protein was purified using FLAG affinity gel. The gel was washed with 20 mmol/L HEPES-NaOH, 500 mmol/L sodium chloride, 1% ethylene glycol, and 0.1% Pluronic F-68 (pH 8.0), and the binding protein was eluted with 20 mmol/L HEPES-NaOH, 100 μg/mL FLAG peptide, 500 mmol/L sodium chloride, 1% ethylene glycol, and 0.1% Pluronic F-68 (pH 8.0). The eluted fractions containing FLAG-Tagged protein were pooled, dialyzed against 20 mmol/L HEPES-NaOH, 150 mmol/L sodium chloride, 0.5 mmol/L EDTA, 1% ethylene glycol, and 0.1% Pluronic F-68 (pH 8.0), and preserved at −80° C.
0.05 U/mL PDH and 0.8 μg/mL hPDHK2 were mixed in a buffer (50 mmol/L 3-morpholinopropanesulfonic acid (pH 7.0), 20 mmol/L dipotassium hydrogen phosphate, 60 mmol/L potassium chloride, 2 mmol/L magnesium chloride, 0.4 mmol/L EDTA, and 0.2% Pluronic F-68, 2 mmol/L dithiothreitol), and the mixture was incubated at 4° C. overnight to obtain a PDH/hPDHK2 complex. The test compounds were diluted with DMSO. […] DMSO (1.5 μL) was added to control wells instead of the test compound. […] The mixture was incubated at room temperature for 90 min, and the residual PDH activity was measured. The absorbance at 340 nm before and after PDH reaction was measured using a microplate reader to detect NADH produced by the PDH reaction. The hPDHK2 inhibition rate (%) of the test compound was calculated from the formula [{(PDH activity of test compound−PDH activity of control)/PDH activity of blank−PDH activity of control)}×100].

[1] = Metabolic stability test in liver microsome (human); assay type: in vitro ADME; details: 5 μM test compound
Experimental: Human liver microsome (manufactured by Xenotech, H0620, final concentration (after dilution), 0.2 mg protein/mL) was suspended in 100 mM potassium phosphate buffer (pH 7.4, containing β-nicotinamide adenine dinucleotide phosphate: 1.3 mM, D-glucose-6-phosphate: 3.3 mM, magnesium chloride: 3.3 mM, glucose-6-phosphate dehydrogenase: 0.45 U/mL), and further mixed with a test compound dissolved in MeCN/DMSO (95/5) (final concentration 5 μM). The mixture was incubated at 37° C. for 10 min and 60 min, acetonitrile containing formic acid (final concentration 0.1%) was added, and the mixture was centrifuged. The test compound (unmodified) in the supernatant was measured by high performance liquid chromatography/mass spectrometry (LC/MS) (manufactured by Waters, LC: Acquity UPLC, MS:SQ Detector or TQ Detector). The residual ratio (%) was calculated from the obtained measurement value.

IC50 (human PDHK2 (hPDHK2)) [nM] | stability in liver microsome (residual ratio %) ([1]; 10 min) [%] | stability in liver microsome (residual ratio %) ([1]; 60 min) [%] | Structure (SMILES)
9.2 | 102.1 | 87.8 | C[C@H](O)COc1cc(-c2cnn(CC(C)(C)O)c2)c2c(c1)[C@@](O)(C(F)(F)F)c1ccccc1-2 [compound (1), (9R)-4-[1-(2-hydroxy-2-methylpropyl)-1H-pyrazol-4-yl]-2-((2S)-2-hydroxypropoxy)-9-(trifluoromethyl)-9H-fluoren-9-ol]
9.7 | 94.9 | 87.9 | CC(C)(O)COc1cc(-c2cnn(CC(C)(C)O)c2)c2c(c1)[C@@](O)(C(F)(F)F)c1ccccc1-2 [compound (2), (9R)-2-(2-hydroxy-2-methylpropoxy)-4-[1-(2-hydroxy-2-methylpropyl)-1H-pyrazol-4-yl]-9-(trifluoromethyl)-9H-fluoren-9-ol]
6.6 | 98.8 | 78.9 | CC(C)(O)CCCOc1cc(-c2cnn(CC(C)(C)O)c2)c2c(c1)[C@@](O)(C(F)(F)F)c1ccccc1-2 [compound (4), (9R)-2-(4-hydroxy-4-methylpentyloxy)-4-[1-(2-hydroxy-2-methylpropyl)-1H-pyrazol-4-yl]-9-(trifluoromethyl)-9H-fluoren-9-ol]
– | 34.8 | 0.0 | NC(=O)Cn1cc(-c2cc(OCCC34CC5CC(CC(O)(C5)C3)C4)cc3c2-c2ccccc2[C@]3(O)C(F)(F)F)cn1 [compound (A), 2-(4-{(9R)-9-Hydroxy-2-[2-(3-hydroxyadamantan-1-yl)ethoxy]-9-(trifluoromethyl)-9H-fluoren-4-yl}-1H-pyrazol-1-yl)acetamide, reference compound]
– | 98.0 | 88.2 | Cn1cc(-c2cc(OCC(C)(C)O)cc3c2-c2ccccc2[C@]3(O)C(F)(F)F)cn1 [compound (B), (9R)-2-(2-Hydroxy-2-methylpropoxy)-4-(1-methyl-1H-pyrazol-4-yl)-9-(trifluoromethyl)-9H-fluoren-9-ol, reference compound]
